Structures are written as SMILES.

This note sets out measurements from US7402687B2, “Dihydrobenzofuran derivatives and uses thereof” (Wyeth, priority 2005, dated 2008).

Assay [1] addresses T1, human serotonin 5-HT2C receptor (Homo sapiens, UniProt P28335).
T1 construct: expressed in transfected cells; host or cells: CHO (Chinese Hamster Ovary) cells; membrane preparation
T1 sequence (P28335 33-458): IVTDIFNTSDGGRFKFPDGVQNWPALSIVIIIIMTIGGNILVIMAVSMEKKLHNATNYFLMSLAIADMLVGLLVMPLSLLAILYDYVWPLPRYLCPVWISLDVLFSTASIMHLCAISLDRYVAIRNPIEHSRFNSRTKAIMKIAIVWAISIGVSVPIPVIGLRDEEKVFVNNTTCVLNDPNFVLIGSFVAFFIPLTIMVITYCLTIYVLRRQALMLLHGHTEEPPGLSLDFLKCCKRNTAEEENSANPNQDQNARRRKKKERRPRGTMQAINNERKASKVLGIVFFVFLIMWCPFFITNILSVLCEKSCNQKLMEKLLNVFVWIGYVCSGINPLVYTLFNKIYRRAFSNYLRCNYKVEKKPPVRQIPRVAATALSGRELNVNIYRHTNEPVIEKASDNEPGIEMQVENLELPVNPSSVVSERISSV
In words: Saturation binding of [125I]DOI at the human 5-HT2C receptor. The conditions noted are these: saturation binding with increasing concentrations of [125I]DOI; read-out: dissociation constant, KD. The text has this:
To evaluate the affinity of various compounds of formula I for activity at the 5-HT2C receptor, a CHO (Chinese Hamster Ovary) cell line transfected with the cDNA expressing the human 5-hydroxytryptamine-2C (h5-HT2C) receptor is maintained in DMEM (Dulbecco's Modified Eagle Media) supplied with fetal calf serum, glutamine, and the markers: guaninephosphoribosyl transferase (GTP) and hypoxanthinethymidine (HT). The cells are allowed to grow to confluence in large culture dishes with intermediate changes of media and splitting. Upon reaching confluence, the cells are harvested by scraping. The harvested cells are suspended in half volume of fresh physiological phosphate buffered saline (PBS) solution and centrifuged at low speed (900×g). This operation is repeated once. The collected cells are then homogenized with a polytron at setting #7 for 15 sec in ten volumes of 50 mM Tris.HCl, pH 7.4 and 0.5 mM EDTA. […] The resulting pellet is resuspended in a small volume of Tris.HCl buffer and the tissue protein content is determined in aliquots of 10-25 μL volumes. […]
The dissociation constant, KD of [^125I] […] The bound complex caught on the filter disk is dried in a vacuum oven heated to 60° C. and the radioactivity measured by liquid scintillation with 40 μL Microscint-20 scintillant in a Packard TopCount® equipped with six (6) photomultiplier detectors.

For assay [2], the target named is T2, human 5-hydroxytryptamine-2C (h5-HT2C) receptor (Homo sapiens, UniProt P28335).
T2 construct: expressed in transfected cells; host or cells: CHO (Chinese Hamster Ovary) cells; membrane preparation
T2 sequence (P28335 33-458): T1 sequence (P28335 33-458)
Briefly: [125I]DOI competition binding at h5-HT2C receptor in transfected CHO cell membranes. The following applies: [125I]DOI displacement, CHO membranes expressing h5-HT2C; 95% confidence interval in adjacent column.

The term Kd denotes the equilibrium constant for the complex coming apart. Regarding `COc1cc(CC(C)N)c(OC)cc1I` (centres unmarked) [[^125I] DOI], the Kd in assay [1] was found to be 0.4 nM.

For orientation: Ki means the equilibrium dissociation constant of an inhibitor or competing ligand from its target. Higher therefore signals a looser hold on the target. `CSc1ccc2c(c1)C(N1CCN(C)CC1)Cc1ccccc1S2` (centres unmarked) [Methiothepin] came in with a Ki in assay [2] of 4.6 nM.
